Laboratory results published in ChEMBL document CHEMBL2073947, “The human multidrug resistance protein MRP4 functions as a prostaglandin efflux transporter and is inhibited by nonsteroidal antiinflammatory drugs” (Proc Natl Acad Sci U S A, 2003).

Key:
[1] = target: T1, MRP5 (ATP-binding cassette sub-family C member 5) (Homo sapiens, UniProt O15440); assay: TP_TRANSPORTER: inhibition of alaninyl-d4TMP by Prostaglandin E1 at a concentration of 20uM in membrane vesicle from MRP5-expressing HEK293 cell; format: functional, cell membranes; parameters: scale not given: the % may be the effect or the level left; conditions: membrane vesicles from MRP5-expressing HEK293 cells, probe alaninyl-d4TMP, read-out: Activity
[2] = target: T2, ATP-binding cassette sub-family C member 4 (Homo sapiens, UniProt O15439); assay: TP_TRANSPORTER: inhibition of E217betaG in the presence of Celecoxib at a concentration of 50uM in membrane vesicles from MRP4-expressing Sf9 cells; format: functional, cell membranes, Membrane vesicle; parameters: scale not given: the % may be the effect or the level left; conditions: sf9, 50 µM
T2 sequence (O15439 whole entry): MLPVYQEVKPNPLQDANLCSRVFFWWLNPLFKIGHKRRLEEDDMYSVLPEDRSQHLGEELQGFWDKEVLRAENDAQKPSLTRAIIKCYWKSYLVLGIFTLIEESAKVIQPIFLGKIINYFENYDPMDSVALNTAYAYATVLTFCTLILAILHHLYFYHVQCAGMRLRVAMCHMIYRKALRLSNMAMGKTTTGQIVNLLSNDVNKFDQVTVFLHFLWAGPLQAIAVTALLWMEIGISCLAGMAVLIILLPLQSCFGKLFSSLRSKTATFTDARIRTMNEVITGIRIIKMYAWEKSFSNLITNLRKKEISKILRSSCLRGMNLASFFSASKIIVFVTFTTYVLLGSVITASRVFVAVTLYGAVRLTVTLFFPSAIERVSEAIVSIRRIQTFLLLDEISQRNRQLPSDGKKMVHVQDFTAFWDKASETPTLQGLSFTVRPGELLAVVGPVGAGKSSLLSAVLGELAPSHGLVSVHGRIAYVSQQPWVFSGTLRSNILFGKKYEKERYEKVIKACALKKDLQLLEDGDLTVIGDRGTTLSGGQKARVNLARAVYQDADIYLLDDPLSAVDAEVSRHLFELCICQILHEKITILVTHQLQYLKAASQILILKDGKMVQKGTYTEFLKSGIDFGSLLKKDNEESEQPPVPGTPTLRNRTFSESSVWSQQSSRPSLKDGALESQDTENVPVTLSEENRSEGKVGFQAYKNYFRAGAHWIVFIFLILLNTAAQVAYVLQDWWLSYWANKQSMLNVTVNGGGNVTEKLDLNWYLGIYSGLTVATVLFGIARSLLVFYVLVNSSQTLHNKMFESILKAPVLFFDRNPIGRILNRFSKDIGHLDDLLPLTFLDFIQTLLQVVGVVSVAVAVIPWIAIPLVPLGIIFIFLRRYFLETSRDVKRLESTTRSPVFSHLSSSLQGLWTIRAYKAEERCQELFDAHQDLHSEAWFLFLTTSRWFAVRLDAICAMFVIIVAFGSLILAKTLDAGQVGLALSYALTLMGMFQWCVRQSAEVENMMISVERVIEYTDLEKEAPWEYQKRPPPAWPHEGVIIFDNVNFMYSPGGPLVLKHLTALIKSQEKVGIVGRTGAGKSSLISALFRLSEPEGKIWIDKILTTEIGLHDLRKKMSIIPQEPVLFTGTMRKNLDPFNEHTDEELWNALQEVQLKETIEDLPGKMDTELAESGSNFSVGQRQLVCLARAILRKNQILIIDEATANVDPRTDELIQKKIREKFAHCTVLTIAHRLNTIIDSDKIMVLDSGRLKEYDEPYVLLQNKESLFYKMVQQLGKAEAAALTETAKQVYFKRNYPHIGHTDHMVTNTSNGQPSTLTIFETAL

[3] = target: T3, Multidrug resistance-associated protein 1 (Homo sapiens, UniProt P33527); assay: TP_TRANSPORTER: inhibition of E217betaG in the presence of Diclofenac at a concentration of 100uM in membrane vesicles from MRP1-expressing Sf9 cells; format: functional, cell membranes, Membrane vesicle; parameters: scale not given: the % may be the effect or the level left; conditions: sf9, 100 µM
[4] = target: T4, MRP4 (ATP-binding cassette sub-family C member 4) (Homo sapiens, UniProt O15439); assay: TP_TRANSPORTER: inhibition of E217betaG in the presence of Diclofenac at a concentration of 100uM in membrane vesicles from MRP4-expressing Sf9 cells; format: functional, cell membranes, Membrane vesicle; parameters: scale not given: the % may be the effect or the level left; conditions: probe E217betaG, read-out: Activity
T4 sequence (O15439 whole entry): T2 sequence (O15439 whole entry)

[5] = target: T1, MRP5 (ATP-binding cassette sub-family C member 5); assay: TP_TRANSPORTER: inhibition of alaninyl-d4TMP by Prostaglandin E2 at a concentration of 20uM in membrane vesicle from MRP5-expressing HEK293 cells; format: functional, cell membranes; parameters: scale not given: the % may be the effect or the level left; conditions: membrane vesicles from MRP5-expressing HEK293 cells, probe alaninyl-d4TMP, read-out: Activity
[6] = target: T2, ATP-binding cassette sub-family C member 4; assay: TP_TRANSPORTER: inhibition of alaninyl-d4TMP in the presence of Prostaglandin F2alpha at a concentration of 20uM in membrane vesicles from MRP4-expressing Sf9 cells; format: functional, cell membranes, Membrane vesicle; parameters: scale not given: the % may be the effect or the level left; conditions: sf9, 20 µM
[7] = target: T1, MRP5 (ATP-binding cassette sub-family C member 5); assay: TP_TRANSPORTER: inhibition of alaninyl-d4TMP by Prostaglandin F2alpha at a concentration of 20uM in membrane vesicle from MRP5-expressing HEK293 cells; format: functional, cell membranes; parameters: scale not given: the % may be the effect or the level left; conditions: membrane vesicles from MRP5-expressing HEK293 cells, probe alaninyl-d4TMP, read-out: Activity
[8] = target: T2, ATP-binding cassette sub-family C member 4; assay: TP_TRANSPORTER: inhibition of E217betaG in the presence of Flurbiprofen at a concentration of 50uM in membrane vesicles from MRP4-expressing Sf9 cells; format: functional, cell membranes, Membrane vesicle; parameters: scale not given: the % may be the effect or the level left; conditions: sf9, 50 µM
[9] = target: T5, MRP1 (Multidrug resistance-associated protein 1) (Homo sapiens, UniProt P33527); assay: TP_TRANSPORTER: inhibition of E217betaG in the presence of Ibuprofen at a concentration of 200uM in membrane vesicles from MRP1-expressing Sf9 cells; format: functional, cell membranes, Membrane vesicle; parameters: scale not given: the % may be the effect or the level left; conditions: probe E217betaG, read-out: Activity
[10] = target: T2, ATP-binding cassette sub-family C member 4; assay: TP_TRANSPORTER: inhibition of E217betaG in the presence of Ibuprofen at a concentration of 200uM in membrane vesicles from MRP4-expressing Sf9 cells; format: functional, cell membranes, Membrane vesicle; parameters: scale not given: the % may be the effect or the level left; conditions: sf9, 200 µM
[11] = target: T3, Multidrug resistance-associated protein 1; assay: TP_TRANSPORTER: inhibition of E217betaG in the presence of Indomethacin at a concentration of 50uM in membrane vesicles from MRP1-expressing Sf9 cells; format: functional, cell membranes, Membrane vesicle; parameters: scale not given: the % may be the effect or the level left; conditions: sf9, 50 µM
[12] = target: T2, ATP-binding cassette sub-family C member 4; assay: TP_TRANSPORTER: inhibition of E217betaG in the presence of Indomethacin at a concentration of 50uM in membrane vesicles from MRP4-expressing Sf9 cells; format: functional, cell membranes, Membrane vesicle; parameters: scale not given: the % may be the effect or the level left; conditions: sf9, 50 µM
[13] = target: T4, MRP4 (ATP-binding cassette sub-family C member 4); assay: TP_TRANSPORTER: inhibition of E217betaG in the presence of Indoprofen at a concentration of 50uM in membrane vesicles from MRP4-expressing Sf9 cells; format: functional, cell membranes, Membrane vesicle; parameters: scale not given: the % may be the effect or the level left; conditions: probe E217betaG, read-out: Activity
[14] = target: T2, ATP-binding cassette sub-family C member 4; assay: TP_TRANSPORTER: inhibition of E217betaG in the presence of Ketoprofen at a concentration of 50uM in membrane vesicles from MRP4-expressing Sf9 cells; format: functional, cell membranes, Membrane vesicle; parameters: scale not given: the % may be the effect or the level left; conditions: sf9, 50 µM
[15] = target: Multidrug resistance associated protein (Homo sapiens) (UniProt Q96QA9); assay: TP_TRANSPORTER: inhibition of alaninyl-d4TMP by Prostaglandin A1 at a concentration of 20uM in membrane vesicle from MRP3-expressing Sf9 cells; format: functional, cell membranes; parameters: scale not given: the % may be the effect or the level left
[16] = target: T1, MRP5 (ATP-binding cassette sub-family C member 5); assay: TP_TRANSPORTER: inhibition of alaninyl-d4TMP by Prostaglandin A1 at a concentration of 20uM in membrane vesicle from MRP5-expressing HEK293 cells; format: functional, cell membranes; parameters: scale not given: the % may be the effect or the level left; conditions: probe alaninyl-d4TMP, read-out: Activity
[17] = target: T2, ATP-binding cassette sub-family C member 4; assay: TP_TRANSPORTER: inhibition of alaninyl-d4TMP in the presence of Prostaglandin A1 at a concentration of 20uM in membrane vesicles from MRP4-expressing Sf9 cells; format: functional, cell membranes, Membrane vesicle; parameters: scale not given: the % may be the effect or the level left; conditions: sf9, 20 µM
[18] = target: T4, MRP4 (ATP-binding cassette sub-family C member 4); assay: TP_TRANSPORTER: inhibition of alaninyl-d4TMP in the presence of Prostaglandin F1alpha at a concentration of 20uM in membrane vesicles from MRP4-expressing Sf9 cells; format: functional, cell membranes, Membrane vesicle; parameters: scale not given: the % may be the effect or the level left; conditions: probe alaninyl-d4TMP, read-out: Activity
[19] = target: T2, ATP-binding cassette sub-family C member 4; assay: TP_TRANSPORTER: inhibition of E217betaG in the presence of Rofecoxib at a concentration of 100uM in membrane vesicles from MRP4-expressing Sf9 cells; format: functional, cell membranes, Membrane vesicle; parameters: scale not given: the % may be the effect or the level left; conditions: sf9, 100 µM
[20] = target: T5, MRP1 (Multidrug resistance-associated protein 1); assay: TP_TRANSPORTER: inhibition of alaninyl-d4TMP in the presence of Thromboxane B2 at a concentration of 20uM in membrane vesicles from MRP1-expressing Sf9 cells; format: functional, cell membranes, Membrane vesicle; parameters: scale not given: the % may be the effect or the level left; conditions: probe alaninyl-d4TMP, read-out: Activity
[21] = target: Multidrug resistance associated protein (Homo sapiens) (UniProt Q96QA9); assay: TP_TRANSPORTER: inhibition of alaninyl-d4TMP by Thromboxane B2 at a concentration of 20uM in membrane vesicle from MRP3-expressing Sf9 cells; format: functional, cell membranes; parameters: scale not given: the % may be the effect or the level left
[22] = target: ATP-binding cassette sub-family C member 5 (Homo sapiens, UniProt O15440); assay: TP_TRANSPORTER: inhibition of alaninyl-d4TMP by Thromboxane B2 at a concentration of 20uM in membrane vesicle from MRP5-expressing HEK293 cells; format: functional, cell membranes; parameters: scale not given: the % may be the effect or the level left; conditions: hek293, 20 µM
[23] = target: T4, MRP4 (ATP-binding cassette sub-family C member 4); assay: TP_TRANSPORTER: inhibition of alaninyl-d4TMP in the presence of Thromboxane B2 at a concentration of 20uM in membrane vesicles from MRP4-expressing Sf9 cells; format: functional, cell membranes, Membrane vesicle; parameters: scale not given: the % may be the effect or the level left; conditions: probe alaninyl-d4TMP, read-out: Activity
[24] = substrate: CCCCC[C@H](O)/C=C/[C@H]1[C@H](O)CC(=O)[C@@H]1C/C=C\CCCC(=O)O; assay: (§1) TP_TRANSPORTER: uptake (vesicle) in membrane vesicles from MRP4-expressing Sf9 cells; format: functional, cell membranes
[25] = substrate: CCCCC[C@H](O)/C=C/[C@H]1[C@H](O)CC(=O)[C@@H]1CCCCCCC(=O)O; assay: as §1; format: functional, cell membranes

T1 sequence (O15440 whole entry): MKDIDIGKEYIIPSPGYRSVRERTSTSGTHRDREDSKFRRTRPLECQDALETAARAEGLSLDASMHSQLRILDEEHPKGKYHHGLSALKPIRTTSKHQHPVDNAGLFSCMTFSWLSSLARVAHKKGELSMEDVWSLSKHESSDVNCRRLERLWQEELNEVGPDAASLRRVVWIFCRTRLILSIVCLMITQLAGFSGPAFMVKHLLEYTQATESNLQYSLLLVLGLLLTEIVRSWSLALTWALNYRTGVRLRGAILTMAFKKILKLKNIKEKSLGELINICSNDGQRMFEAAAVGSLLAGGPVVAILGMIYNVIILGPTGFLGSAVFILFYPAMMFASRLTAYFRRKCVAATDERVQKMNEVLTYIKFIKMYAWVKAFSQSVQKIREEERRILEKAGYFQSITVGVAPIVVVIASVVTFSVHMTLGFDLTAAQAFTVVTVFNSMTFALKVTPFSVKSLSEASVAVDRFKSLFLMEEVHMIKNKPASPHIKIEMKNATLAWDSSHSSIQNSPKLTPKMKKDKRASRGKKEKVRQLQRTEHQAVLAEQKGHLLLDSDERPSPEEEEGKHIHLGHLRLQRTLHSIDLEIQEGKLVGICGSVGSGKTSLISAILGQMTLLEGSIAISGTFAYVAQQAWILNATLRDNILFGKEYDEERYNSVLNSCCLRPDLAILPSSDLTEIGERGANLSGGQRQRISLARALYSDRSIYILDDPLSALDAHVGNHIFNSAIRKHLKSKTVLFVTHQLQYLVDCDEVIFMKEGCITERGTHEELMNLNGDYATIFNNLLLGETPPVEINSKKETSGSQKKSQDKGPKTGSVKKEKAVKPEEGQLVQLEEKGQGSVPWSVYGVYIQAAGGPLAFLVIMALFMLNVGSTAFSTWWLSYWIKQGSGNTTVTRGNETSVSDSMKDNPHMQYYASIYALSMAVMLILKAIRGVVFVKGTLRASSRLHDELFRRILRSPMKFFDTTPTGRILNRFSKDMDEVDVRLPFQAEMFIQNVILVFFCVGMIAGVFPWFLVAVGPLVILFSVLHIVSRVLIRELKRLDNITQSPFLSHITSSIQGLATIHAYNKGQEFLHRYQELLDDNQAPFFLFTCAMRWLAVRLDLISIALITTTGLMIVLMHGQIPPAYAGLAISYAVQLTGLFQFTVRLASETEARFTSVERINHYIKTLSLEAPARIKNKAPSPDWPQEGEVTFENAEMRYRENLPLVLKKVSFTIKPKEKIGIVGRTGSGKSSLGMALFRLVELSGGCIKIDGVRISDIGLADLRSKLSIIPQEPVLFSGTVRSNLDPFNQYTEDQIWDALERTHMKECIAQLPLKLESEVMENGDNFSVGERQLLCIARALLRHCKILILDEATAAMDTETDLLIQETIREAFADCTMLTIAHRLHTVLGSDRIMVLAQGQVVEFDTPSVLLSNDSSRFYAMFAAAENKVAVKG
T5 sequence (P33527 whole entry): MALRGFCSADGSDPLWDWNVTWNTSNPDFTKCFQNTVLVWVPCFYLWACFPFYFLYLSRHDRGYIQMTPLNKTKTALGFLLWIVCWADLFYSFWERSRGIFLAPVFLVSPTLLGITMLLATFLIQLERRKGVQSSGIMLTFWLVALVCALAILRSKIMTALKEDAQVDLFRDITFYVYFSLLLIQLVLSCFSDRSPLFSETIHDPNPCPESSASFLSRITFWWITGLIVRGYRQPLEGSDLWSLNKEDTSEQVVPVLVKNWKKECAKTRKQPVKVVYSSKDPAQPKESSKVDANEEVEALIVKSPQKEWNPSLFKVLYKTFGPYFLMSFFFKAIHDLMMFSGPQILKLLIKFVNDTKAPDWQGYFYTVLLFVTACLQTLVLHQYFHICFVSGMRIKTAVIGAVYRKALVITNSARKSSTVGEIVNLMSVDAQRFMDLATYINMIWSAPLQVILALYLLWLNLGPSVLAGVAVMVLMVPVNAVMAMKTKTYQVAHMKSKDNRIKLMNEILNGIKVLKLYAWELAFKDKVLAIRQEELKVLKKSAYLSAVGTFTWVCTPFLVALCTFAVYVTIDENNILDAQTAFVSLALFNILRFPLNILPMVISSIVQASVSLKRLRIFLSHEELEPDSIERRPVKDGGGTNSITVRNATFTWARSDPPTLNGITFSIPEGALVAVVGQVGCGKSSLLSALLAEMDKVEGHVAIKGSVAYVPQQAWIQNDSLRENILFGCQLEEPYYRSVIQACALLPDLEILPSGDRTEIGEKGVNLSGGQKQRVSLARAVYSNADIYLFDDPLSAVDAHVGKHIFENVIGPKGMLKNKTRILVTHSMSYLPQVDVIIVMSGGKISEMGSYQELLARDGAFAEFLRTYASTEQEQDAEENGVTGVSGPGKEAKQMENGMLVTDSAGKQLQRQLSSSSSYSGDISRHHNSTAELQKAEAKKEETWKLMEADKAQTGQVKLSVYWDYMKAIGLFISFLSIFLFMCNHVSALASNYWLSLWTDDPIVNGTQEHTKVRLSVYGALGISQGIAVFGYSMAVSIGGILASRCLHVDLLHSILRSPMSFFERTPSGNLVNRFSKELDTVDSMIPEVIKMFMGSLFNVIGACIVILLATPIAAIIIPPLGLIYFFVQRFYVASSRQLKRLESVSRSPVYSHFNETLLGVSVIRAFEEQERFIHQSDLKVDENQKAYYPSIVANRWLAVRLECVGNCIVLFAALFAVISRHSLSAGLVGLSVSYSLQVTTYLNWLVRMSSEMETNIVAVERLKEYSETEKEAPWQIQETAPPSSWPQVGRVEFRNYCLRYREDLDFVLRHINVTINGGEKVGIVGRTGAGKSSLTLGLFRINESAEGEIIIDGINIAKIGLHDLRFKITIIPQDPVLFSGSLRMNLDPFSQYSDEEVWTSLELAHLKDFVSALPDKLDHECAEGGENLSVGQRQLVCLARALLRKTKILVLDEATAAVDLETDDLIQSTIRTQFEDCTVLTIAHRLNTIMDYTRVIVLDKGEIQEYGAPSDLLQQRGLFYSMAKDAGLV
T3 sequence (P33527 whole entry): as above
Multidrug resistance associated protein (Homo sapiens), sequence (Q96QA9 as listed by the source): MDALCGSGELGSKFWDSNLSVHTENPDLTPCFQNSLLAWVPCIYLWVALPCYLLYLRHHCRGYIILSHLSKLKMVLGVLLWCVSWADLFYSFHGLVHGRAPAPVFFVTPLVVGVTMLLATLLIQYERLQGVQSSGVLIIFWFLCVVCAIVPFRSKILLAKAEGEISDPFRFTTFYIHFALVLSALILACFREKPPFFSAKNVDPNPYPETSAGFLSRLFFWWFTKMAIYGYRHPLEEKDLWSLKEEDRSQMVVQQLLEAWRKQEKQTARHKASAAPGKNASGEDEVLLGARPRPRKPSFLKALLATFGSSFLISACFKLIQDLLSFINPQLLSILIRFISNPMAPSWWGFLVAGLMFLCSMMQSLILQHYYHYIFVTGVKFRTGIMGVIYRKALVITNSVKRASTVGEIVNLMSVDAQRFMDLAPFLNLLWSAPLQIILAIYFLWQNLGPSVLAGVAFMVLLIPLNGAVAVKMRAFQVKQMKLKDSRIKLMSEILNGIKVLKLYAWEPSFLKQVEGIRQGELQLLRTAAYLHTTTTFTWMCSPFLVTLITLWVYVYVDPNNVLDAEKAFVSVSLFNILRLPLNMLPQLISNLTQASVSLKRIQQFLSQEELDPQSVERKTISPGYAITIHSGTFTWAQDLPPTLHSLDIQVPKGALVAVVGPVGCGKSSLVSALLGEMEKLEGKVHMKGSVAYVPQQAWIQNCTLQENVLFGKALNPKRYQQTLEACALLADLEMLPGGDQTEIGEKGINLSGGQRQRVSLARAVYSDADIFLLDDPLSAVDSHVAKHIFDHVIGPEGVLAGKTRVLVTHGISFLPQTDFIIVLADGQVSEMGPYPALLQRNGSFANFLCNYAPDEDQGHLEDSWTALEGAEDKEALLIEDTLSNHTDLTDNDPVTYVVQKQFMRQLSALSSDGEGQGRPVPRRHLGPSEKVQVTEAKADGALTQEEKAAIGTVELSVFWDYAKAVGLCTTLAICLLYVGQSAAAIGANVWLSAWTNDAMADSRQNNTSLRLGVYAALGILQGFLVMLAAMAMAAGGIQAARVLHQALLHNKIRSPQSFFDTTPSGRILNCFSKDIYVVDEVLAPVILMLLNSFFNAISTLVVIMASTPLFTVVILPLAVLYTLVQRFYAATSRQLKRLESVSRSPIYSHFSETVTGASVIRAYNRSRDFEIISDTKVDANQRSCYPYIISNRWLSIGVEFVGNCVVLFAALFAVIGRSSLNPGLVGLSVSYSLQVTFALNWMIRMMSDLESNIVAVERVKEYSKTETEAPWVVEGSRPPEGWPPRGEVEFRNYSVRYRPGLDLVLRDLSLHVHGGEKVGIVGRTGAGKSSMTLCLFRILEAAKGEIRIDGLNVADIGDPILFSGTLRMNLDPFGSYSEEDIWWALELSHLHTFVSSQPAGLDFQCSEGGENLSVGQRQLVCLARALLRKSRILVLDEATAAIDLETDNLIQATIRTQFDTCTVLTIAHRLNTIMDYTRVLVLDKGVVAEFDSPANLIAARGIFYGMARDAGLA

CCCCC[C@H](O)/C=C/[C@H]1[C@H](O)CC(=O)[C@@H]1CCCCCCC(=O)O [ALPROSTADIL]
activity at 20 µM [1]: 69%

Cc1ccc(-c2cc(C(F)(F)F)nn2-c2ccc(S(N)(=O)=O)cc2)cc1 [CELECOXIB]
Activity [2]: 78%

O=C(O)Cc1ccccc1Nc1c(Cl)cccc1Cl [DICLOFENAC]
Activity [3]: 82%
activity at 100 µM [4]: 61%

CCCCC[C@H](O)/C=C/[C@H]1[C@H](O)CC(=O)[C@@H]1C/C=C\CCCC(=O)O [DINOPROSTONE]
activity at 20 µM [5]: 74%

CCCCC[C@H](O)/C=C/[C@@H]1[C@@H](C/C=C\CCCC(=O)O)[C@@H](O)C[C@H]1O [DINOPROST]
Activity [6]: 15%
activity at 20 µM [7]: 63%

CC(C(=O)O)c1ccc(-c2ccccc2)c(F)c1 (stereo not given) [FLURBIPROFEN]
Activity [8]: 23%

CC(C)Cc1ccc(C(C)C(=O)O)cc1 (stereo not given) [IBUPROFEN]
activity at 200 µM [9]: 79%
Activity [10]: 31%

COc1ccc2c(c1)c(CC(=O)O)c(C)n2C(=O)c1ccc(Cl)cc1 [INDOMETHACIN]
Activity [11]: 56%
Activity [12]: 11%

CC(C(=O)O)c1ccc(N2Cc3ccccc3C2=O)cc1 (stereo not given) [INDOPROFEN]
activity at 50 µM [13]: 17%

CC(C(=O)O)c1cccc(C(=O)c2ccccc2)c1 (stereo not given) [KETOPROFEN]
Activity [14]: 35%

CCCCC[C@H](O)/C=C/[C@H]1C=CC(=O)[C@@H]1CCCCCCC(=O)O [PROSTAGLANDIN A1]
Activity [15]: 76%
activity at 20 µM [16]: 51%
Activity [17]: 2%

CCCCC[C@H](O)/C=C/[C@@H]1[C@@H](CCCCCCC(=O)O)[C@@H](O)C[C@H]1O [PROSTAGLANDIN F1ALPHA]
activity at 20 µM [18]: 29%

CS(=O)(=O)c1ccc(C2=C(c3ccccc3)C(=O)OC2)cc1 [ROFECOXIB]
Activity [19]: 80%

CCCCC[C@H](O)/C=C/[C@H]1OC(O)C[C@H](O)[C@@H]1C/C=C\CCCC(=O)O (stereo not given in full) [THROMBOXANE B2]
activity at 20 µM [20]: 66%
Activity [21]: 76%
Activity [22]: 77%
activity at 20 µM [23]: 29%

B1: ATP-binding cassette sub-family C member 4 (Homo sapiens) (protein)
chain: T2 sequence (O15439 whole entry)
Km [24]: 3.4 µM
Km [25]: 2.1 µM
